Experiments:
[1] = biological target: BK channels (CHO cells permanently transfected with cloned hSlo, α-hSlo and β-bSlo) (Homo sapiens, UniProt Q12791); test: Em-Assay: fluorescence membrane potential assay with voltage sensitive dye DiBAC(4)3; type: cell-based; settings: ratio of the compound effect (50 μM) compared to the maximal effect of NS004 (25 or 50 μM)
Description: The large conductance, voltage-dependent and Ca^2+-activated potassium channel BK is a potassium selective ion channel and belongs to the subfamily of KCa channels. Four BK alpha-subunits form a functional channel that can be regulated by intracellular Ca^2+ concentration, membrane voltage, and other mechanisms like phosphorylation states or beta subunits. To test the biological activity of the compounds, we applied two different techniques, a fluorescence based assay using a voltage sensitive dye (Em-Assay) as well as exploiting electrophysiological methods.
CHO cells permanently transfected with cloned hSlo (α-hSlo and β-bSlo), yielding typical BK potassium currents (Zhou et al., Pflügers Arch., 436: 725-734 (1998), were used for the evaluation of compound activity. Activation or inhibition of BK channels in these cells leads to a change of the electrochemical gradient causing a hyperpolarized or depolarised membrane potential, respectively.
To determine changes in the membrane potential of the cells we used the voltage sensitive dye DiBaC(4)3 (Molecular Probes) in a kinetic assay system using a fluorescent plate reader (Manning and Sontheimer, J. Neurosci. Meth., 91: 73-81 (1999). The anionic bis-oxonol DiBAC(4)3 is a voltage sensitive dye which partitions from the extracellular environment into the cell where it reversibly binds to intracellular proteins, a kinetic process depending on the membrane potential of the cell. At depolarised potentials (i.e. at a reduced K^+ efflux due to blocked K^+ channels) the dye accumulates in the cell leading to an increased fluorescence intensity, due to its increased fluorescence if bound to cellular proteins. At hyperpolarized potentials (i.e. at an increased K^+ efflux due to the opening of K^+ channels), the dye partitions out of the cell causing a decreased fluorescence intensity.
hslo transfected CHO cells where maintained in DMEM supplemented with 10% FCS, 250 μg/ml Geneticin, 100 μg/m Hygromycin, 1×HT-Supplement, and 1×Non-essential Amino Acids and cultured in a humidified CO2 incubator. After trypsination, cells where plated with a density of 5×10^4 cells per well on a clear 96-well plate and incubated for 24 h. Cells where washed once with PBS, once with PBS containing 20 mM HEPES (adjusted to pH 7.4 with NaOH) and 2 μM DiBAC(4)3 (DPBS-DiBAC solution). 180 μl of the dPBS-DiBAC solution was then added to the cells and the plate incubated for 30-60 min at 37° C. During this time the dye could partition into the cells and reach a certain steady-state distribution, depending on the resting membrane potential. Test and reference compounds were stored as DMSO stock solutions and diluted in dPBS-DiBAC solution to the desired concentration.
Fluorescence intensity (Ex.: 485 nm/Em.: 520 nm) of each well was detected in the plate reader (Fluostar, BMG) every 60 seconds. After recording the baseline fluorescence for 7 minutes, 20 μl test- and reference compounds were added and the fluorescence intensity was detected for additional 15 minutes. Background was subtracted, data values were normalized and expressed as a change in fluorescence intensity against time. The change in fluorescence intensity caused by the test compounds was evaluated, compared to the effect of the reference compound NS004, and the ratio was determined (see Table I).

[2] = biological target: BK currents (CHO cells permanently transfected with cloned α-hSlo and β-bSlo) (Homo sapiens, UniProt Q12791); test: Electrophysiological studies: whole-cell patch-clamp of BK currents; type: cell-based; settings: ratio of current increase after application of compound (20 μM) relative to the control current before compound application; steady-state
Procedure: Electrophysiological Studies:
CHO cells permanently transfected with cloned α-hSlo and β-bSlo were maintained as described above and used for electrophysiological characterisation. The whole-cell configuration of the patch-lamp technique was used to determine the effect of modulators on BK currents in these cells. The cell line expressing functional BK currents (Zhou et al., Pflügers Arch. 436, p. 725 (1998)) were plated onto glass cover slips with a density of 1-5×10^4 cells/cover slip, incubated (37° C., 5% CO2) and used for patch-lamp experiments within 24-48 h. Cells were bathed in mammalian ringer solutions containing (in mM): 160NaCl, 4.5KCl, 2CaCl2, 1MgCl2, 10HEPES, adjusted to pH 7.4, 290-310 mOsm. The internal pipette solution contained (in mM): 160KCl, 2CaCl2, 1MgCl2, 10 HEPES, EGTA was added to reach a free [Ca^2+]internal=1×10^−6M, adjusted to pH 7.2, 290-310 mOsm. Borosilicate pipettes with a resistance of 2-3 MΩ were filled with the internal solution and mounted on an appropriate holder. […]
After addition of the compounds to the bath solution their modulating effect was determined by the increase or decrease of specific BK currents after reaching steady-state relative to the BK current before application of drugs (see Table II).

BK channels (CHO cells permanently transfected with cloned hSlo, α-hSlo and β-bSlo), sequence (Q12791 whole entry): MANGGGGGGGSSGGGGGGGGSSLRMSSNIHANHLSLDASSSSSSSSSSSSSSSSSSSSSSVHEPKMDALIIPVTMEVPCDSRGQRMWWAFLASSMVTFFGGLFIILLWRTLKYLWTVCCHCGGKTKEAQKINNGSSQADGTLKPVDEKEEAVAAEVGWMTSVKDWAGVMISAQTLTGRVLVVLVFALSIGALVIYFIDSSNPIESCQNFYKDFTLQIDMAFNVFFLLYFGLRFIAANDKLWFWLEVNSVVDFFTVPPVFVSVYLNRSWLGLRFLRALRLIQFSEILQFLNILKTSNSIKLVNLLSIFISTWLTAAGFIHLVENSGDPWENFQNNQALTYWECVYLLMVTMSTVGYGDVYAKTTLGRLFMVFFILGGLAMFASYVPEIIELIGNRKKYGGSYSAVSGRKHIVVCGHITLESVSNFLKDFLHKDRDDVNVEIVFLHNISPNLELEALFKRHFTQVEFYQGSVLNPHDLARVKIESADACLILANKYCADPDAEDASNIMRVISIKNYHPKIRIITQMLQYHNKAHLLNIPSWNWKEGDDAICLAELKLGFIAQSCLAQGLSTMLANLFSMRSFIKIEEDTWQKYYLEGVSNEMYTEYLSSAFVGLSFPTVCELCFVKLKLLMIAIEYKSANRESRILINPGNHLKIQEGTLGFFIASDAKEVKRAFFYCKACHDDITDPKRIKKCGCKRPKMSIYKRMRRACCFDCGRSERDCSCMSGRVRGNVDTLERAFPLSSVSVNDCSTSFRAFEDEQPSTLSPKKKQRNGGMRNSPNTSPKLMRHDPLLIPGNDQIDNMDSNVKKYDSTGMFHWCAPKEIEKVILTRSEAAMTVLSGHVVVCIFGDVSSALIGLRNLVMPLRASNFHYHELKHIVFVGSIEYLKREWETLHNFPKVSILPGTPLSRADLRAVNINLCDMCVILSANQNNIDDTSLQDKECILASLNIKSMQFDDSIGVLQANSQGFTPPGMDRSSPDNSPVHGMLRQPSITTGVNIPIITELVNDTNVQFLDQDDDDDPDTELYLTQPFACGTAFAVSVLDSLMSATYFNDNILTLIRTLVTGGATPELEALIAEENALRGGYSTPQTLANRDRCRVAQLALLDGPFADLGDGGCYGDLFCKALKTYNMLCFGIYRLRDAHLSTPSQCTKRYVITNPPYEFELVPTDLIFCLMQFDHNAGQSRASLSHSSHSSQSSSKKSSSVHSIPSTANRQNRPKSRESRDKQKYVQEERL
BK channels (CHO cells permanently transfected with cloned hSlo, α-hSlo and β-bSlo), sequence (Q28067 whole entry partner): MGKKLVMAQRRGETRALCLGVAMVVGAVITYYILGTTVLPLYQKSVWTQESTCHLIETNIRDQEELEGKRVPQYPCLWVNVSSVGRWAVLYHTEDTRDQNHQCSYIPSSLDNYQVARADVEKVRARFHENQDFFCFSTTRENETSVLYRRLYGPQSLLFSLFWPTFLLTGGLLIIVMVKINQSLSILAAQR
BK currents (CHO cells permanently transfected with cloned α-hSlo and β-bSlo), sequence (Q12791 whole entry): as the sequence (Q12791 whole entry) above
BK currents (CHO cells permanently transfected with cloned α-hSlo and β-bSlo), sequence (Q28067 whole entry partner): as the sequence (Q28067 whole entry partner) above

| SMILES | Em effect [1] | Effect [2] |
| --- | --- | --- |
| COc1cc2c(c(OC)c1)C(c1cccc(OC(F)(F)F)c1)N(C(=O)c1ccc(OC(F)(F)F)cc1)CC2 (stereo not shown) [Compound 30, [6,8-Dimethoxy-1-(3-tifluoromethoxy-phenyl)-3,4-dihydro-1H-isoquinolin-2-yl](4-trifluoromethoxy-phenyl)-metanone] | + (0-1=+) | + (<1.2 = +) |
| COc1cc2c(c(OC)c1)C(C)N(S(=O)(=O)c1cccc([N+](=O)[O-])c1)CC2 (stereo not shown) [Compound 36, 6,8-Dimethoxy-1-methyl-2-(3-nitro-benzenesulfonyl)-1,2,3,4-tetrahydro-isoquinoline] | ++ (>1-1.5=++) | ++ (>1.2 = ++) |
